The source of these data is paper doi:10.1101/2021.12.13.472388v3 (biorxiv, 2022).

In one assay the target is BRD4-BDI (Homo sapiens, UniProt O60885). The assay is described as follows: HTRF peptide displacement. It counts as binding. The conditions noted are these: 6 h, room temperature.
The target of a further assay is CECR2 (Homo sapiens, UniProt Q9BXF3). The assay is described as follows: BROMOscan competition binding. The conditions noted are these: single dose 1 μM; unreliable (may be per cent of control, direction unclear).
In another assay the test system is K-562. The assay is described as follows: cells. On the set-up: species or system MOLM-14, CCRF-CEM, NB4. The conditions noted are these: Homo sapiens, K562, 72 h, read-out: Cells viability EC50 K-562 (µM).
The test system of a further assay is NB4. The assay is described as follows: cells. On the set-up: species or system MOLM-14, CCRF-CEM, K-562. The conditions noted are these: Homo sapiens, NB-4, 72 h, read-out: Cells viability EC50 NB4 (µM).
A further assay concerns the target T1, TRIM33 (Homo sapiens, UniProt Q9UPN9).
T1 sequence (Q9UPN9 882-1087 limits assumed): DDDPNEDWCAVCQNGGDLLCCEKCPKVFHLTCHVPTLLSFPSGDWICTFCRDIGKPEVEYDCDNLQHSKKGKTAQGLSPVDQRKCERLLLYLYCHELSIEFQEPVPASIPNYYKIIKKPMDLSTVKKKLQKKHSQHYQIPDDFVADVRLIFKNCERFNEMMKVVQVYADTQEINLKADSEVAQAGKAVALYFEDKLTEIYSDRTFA
The assay is described as follows: BROMOscan competition binding. The conditions noted are these: single dose 1 μM; unreliable (may be per cent of control, direction unclear).

Structures are written as SMILES.

The IC50 is the concentration that gives 50% inhibition. Low readings indicate higher potency, high ones lower potency. As for `CC(=O)N1CCc2c(sc3nc(SCC(=O)Nc4cc(Cl)ccc4C)n(Cc4ccco4)c(=O)c23)C1` [compound 1], the IC50 at BRD4-BDI came out at 4 ± 0.5 µM.
Same read-out and setting: the result for `Cc1ccc(-c2c(C)noc2C)cc1S(=O)(=O)Nc1cccc(C)c1C` [compound 2] reads 11 ± 0.9 µM; that for `CCc1cccc(C)c1NS(=O)(=O)c1cc(-c2c(C)noc2C)ccc1C` [compound 3], 9.3 ± 0.8 µM.
In turn, `Cc1cc(F)ccc1NS(=O)(=O)c1cc(-c2c(C)noc2C)ccc1C` [compound 4] registered an IC50 on BRD4-BDI of 7.4 ± 0.5 µM. The IC50 values of the last two compounds are within 1.5-fold of each other.
With `COc1cc(C(=O)C(=Cc2ccncc2)c2nc3ccccc3o2)cc(OC)c1OC` [compound 5], the IC50 on BRD4-BDI was determined as 4.3 ± 0.2 µM.
`O=C1c2ccc(Oc3cccc(Oc4ccc5c(c4)C(=O)N(c4ccc(O)cc4)C5=O)c3)cc2C(=O)N1c1ccc(O)cc1` [compound 7]: the IC50 on BRD4-BDI is 1.1 ± 0.1 µM. This IC50 is about 3.9-fold lower than that of the compound before.
Broadly, the % inhibition is the change of the read-out against control, counted positive when it falls. A high value points to a response far below the control. In general, EC50 refers to the concentration at which the effect is half-maximal. For the compound `CC(=O)N1CCc2c(sc3nc(SCC(=O)Nc4cccnc4C)n(Cc4ccco4)c(=O)c23)C1` [compound 34, 2-((7-Acetyl-3-(furan-2-ylmethyl)-4-oxo-3,4,5,6,7,8-hexahydropyrido[4’,3’:4,5]thieno[2,3-d]pyrimidin-2-yl)thio)-N-(2-methylpyridin-3-yl)acetamide], the “% inhibition at 1 μM” value at CECR2 is recorded as 54%; at TRIM33 it was 52%. Besides, the EC50 in the assay on K-562 and in the assay with NB4 was over 25 µM in each case. On BRD4-BDI, the concentration for half-maximal inhibition (IC50) is 1.3 µM.
